This is an account of results in the METLIN SMRT retention time set (Domingo-Almenara et al. 2019).

A short description of the data set: gradient 5% acetonitrile 3 min, to 50% in 2 min, to 85% in 15 min, held 3 min, 100 µL/min. Conditions: column: Zorbax Extend-C18 2.1 x 50 mm; eluents: water / acetonitrile, 0.1% formic acid. The gist of the method:
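Data were gathered over 3 months by HPLC coupled to a quadrupole time-of-flight mass spectrometer, operated in positive and negative ionization mode. Mixtures of ~100 pure standards ran on a Zorbax Extend-C18 column (2.1 × 50 mm, 1.8 μm) at 100 μL/min, with water and acetonitrile each containing 0.1% formic acid and dead and dwell volumes of 40 μL and 900 μL. Retention time was read from adduct peaks picked by computer and checked manually.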
In turn, `CC1Cc2cc(S(=O)(=O)N3CCC(C(N)=O)(N4CCCCC4)CC3)ccc2N1C(=O)C1CC1` (stereo not given) returned an RP-LC retention time of 630 s.
The compound `CCOc1ccccc1NC(=O)Cn1c(=O)c(CCC(=O)NCC(C)C)nc2ccccc21` registered an RP-LC retention time of 762 s.
The compound `CCCNC(=O)CC1=C2CCCCC2NC1=O` (stereo not given) had an RP-LC retention time of 618 s.
In the case of `CCCCC(=O)Nc1ccc2nc(N3CCN(CC)CC3)cc(C(=O)O)c2c1`, the RP-LC retention time worked out at 571 s.
For the compound `Cc1ccc(CNCc2ccc3c(c2)n(C)c(=O)n3C)cc1`, the RP-LC retention time was found to be 619 s.
`COc1cc(CNC(=O)c2cc(C(C)(C)C)n3nccc3n2)cc(OC)c1` showed an RP-LC retention time of 1110 s.
Compound `O=C(CC1CCCC1)NCCc1nc2cccnc2n1-c1ccccc1` gave an RP-LC retention time of 736 s.
`Cn1c(=O)c2c3c(cnc2n(C)c1=O)C(=O)CC(c1ccc(F)cc1)C3` (stereo not given) showed an RP-LC retention time of 940 s.
As to `CC(NC(=O)COc1ccccc1)C(=O)N1CCN(c2ccccn2)CC1` (stereo not given), the RP-LC retention time came out at 602 s.
The figure for `Cc1sc(NC(=O)c2cccc(Cl)c2)nc1-c1ccc2c(c1)NC(=O)CO2` is 968 s.
Compound `COc1ccc(C(C)NC(=O)Cc2c[nH]c3ncccc23)cc1OC` (stereo not given) came in with an RP-LC retention time of 664 s.
As for `COc1cccc(CNC(=O)CCc2c(-c3ccc(Br)cc3)nc3ccccn23)c1`, the figure is 698 s; as for `COc1cc(OC)cc(-c2noc(-c3nn(-c4ccc(C)cc4)ccc3=O)n2)c1`, 916 s.
For `Cn1c(=O)n(C)c2cc(Oc3ccccc3)c(NS(=O)(=O)c3ccc(F)cc3)cc21`, the RP-LC retention time amounted to 868 s.
`O=C(NCc1cccc(C(F)(F)F)c1)C1CCN(c2nnc(-c3ccccc3)o2)CC1` returned an RP-LC retention time of 896 s.
`CCOc1ccc(C(=O)N2CCN(c3ccc(-c4nc(C)cs4)cn3)CC2)cc1`: the RP-LC retention time came to 884 s.
`Cc1ccc(Cl)cc1N1C(=O)CN(S(C)(=O)=O)CC1(C)C(=O)NCc1ccccc1` (stereo not given) showed an RP-LC retention time of 854 s.
`CCn1nccc1C(=O)Nc1cc(-c2cc3ccccc3n2CC)[nH]n1` had an RP-LC retention time of 876 s.
The figure for `Cc1cc(C(=O)NC2CCCC2)c2cc(F)ccc2n1` is 710 s; for `COc1cccc(S(=O)(=O)N2C[C@@H]3C[C@H]2C[C@@H]3NC(=O)c2cccs2)c1` it is 854 s; for `CCc1ccc(Oc2nccnc2N2CCC(C(=O)NC(C)c3ccccc3)CC2)cc1` (stereo not given) it is 1120 s.
Take `CCc1nnc(-c2cn(CC(=O)Nc3ccc4c(c3)OCCO4)c3ccccc23)o1`: the RP-LC retention time was 817 s.
The compound `CCCN(CC1CCOC1)C(=O)Nc1ccccc1F` (stereo not given) came in with an RP-LC retention time of 728 s.
As to `CCOc1ccc(C(=O)N(c2ccccc2CC)C2C=CS(=O)(=O)C2)cc1OCC` (stereo not given), the RP-LC retention time came out at 840 s.
Consider `COc1ccc(C(O)CN2CCN(c3ccc(C)cc3)CC2)cc1` (stereo not given), for which the RP-LC retention time came out at 663 s.
In turn, `CCOC(=O)c1nc(NCc2ccccc2Cl)c2c(CC)noc2n1` yielded an RP-LC retention time of 1010 s.
Regarding `COc1cc2c(cc1OC)C(C(=O)N1CCC(C(N)=O)CC1)C(c1cccs1)N(C)C2=O` (stereo not given), the RP-LC retention time amounted to 596 s.
Take `COCCN1CCCCc2cc(C(N)=O)sc21`: the RP-LC retention time came out at 708 s.
Compound `O=C(Nc1ccccc1)c1cn(CC2CCCO2)cc2c(=O)n(-c3ccccc3)nc1-2` (stereo not given) gave an RP-LC retention time of 993 s.
In turn, `Cn1nnc2c(N3CCN(S(=O)(=O)c4cccs4)CC3)ncnc21` showed an RP-LC retention time of 726 s.
`CCC(C)C(NC(=O)c1ccc(C)cc1)C(=O)Nc1nc2ccccc2[nH]1` (stereo not given) displayed an RP-LC retention time of 765 s.
Consider `CCN1C[C@H](C)n2c(c(O)c3c(=O)n(Cc4ccc(F)c(Cl)c4)nc(C(=O)NC)c32)C1=O`, for which the RP-LC retention time worked out at 871 s.
In the case of `COc1ccc(CCC(=O)Nc2nc(-c3ccc(F)cc3F)cs2)cc1`, the RP-LC retention time was determined as 1100 s.
Turning to `COc1ccccc1C(=O)Nc1cc(-c2ccccn2)no1`, the RP-LC retention time worked out at 980 s.
In the case of `COc1ccc(-c2ncc3c(n2)CCN(C(=O)Nc2cccc(C)c2C)C3)cc1`, the RP-LC retention time was found to be 894 s.
Compound `COc1ccc(-c2noc(-c3nnn4c3COC(c3ccc(Cl)cc3)C4)n2)cc1OC` (stereo not given) returned an RP-LC retention time of 1130 s.
The compound `O=C(c1c(F)cccc1F)N1CCN(c2nc(CN3CCOCC3)cs2)CC1` displayed an RP-LC retention time of 608 s.
Compound `Cc1ccc(NS(=O)(=O)c2ccc3c(c2)C(=O)N(C)c2ncccc2O3)c(F)c1` gave an RP-LC retention time of 910 s.
For `Cc1ccc(-c2ccc(N3CCCC(C(=O)NCCC4=CCCCC4)C3)nn2)cc1C` (stereo not given), the RP-LC retention time turned out to be 888 s.
As for `CC(C)CNC(=O)Cc1nnc(-c2ccccc2)o1`, the figure is 718 s; as for `COc1ccccc1Nc1c(-c2cccc(O)c2)nc2cnccn12`, 681 s; as for `Cc1ccc(N2CCC(NC(=O)Nc3ccc(F)cc3)C2=O)cc1` (stereo not given), 846 s.
In turn, `COc1ccc(C(=O)Nc2cnn(C)c(=O)c2N2CCCCC2)cc1` displayed an RP-LC retention time of 923 s.
`CCc1onc(C)c1C1CCCN1C(=O)NCc1ccc(F)cc1` (stereo not given) showed an RP-LC retention time of 766 s.
As to `CN(C)c1ncncc1N1CCC(C(=O)N2CCN(c3ccc(Cl)cc3)CC2)CC1`, the RP-LC retention time is 692 s.
`COc1ccc(C(=O)Nc2nnc(SCc3ccccc3Cl)s2)cc1OC` came in with an RP-LC retention time of 954 s.
In turn, `O=C(Cc1cccs1)N1CCc2cc(-c3csc(C4CC4)n3)ccc21` had an RP-LC retention time of 1120 s.
The compound `Cn1nnnc1C1CCCN(C(=O)C2CCCC2)C1` (stereo not given) yielded an RP-LC retention time of 665 s.
As for `CC(C)Cn1cc(CCNS(=O)(=O)c2ccc(Cl)c(Cl)c2)c2cccnc21`, the figure is 1060 s.
In turn, `O=C(CS(=O)Cc1cnn(-c2ccccc2)c1-n1cccc1)NCc1cccc(Br)c1` (stereo not given) registered an RP-LC retention time of 830 s.
Regarding `Cc1ccc(-c2ocnc2C(=O)Nc2ccc(Br)cc2F)o1`, the RP-LC retention time stood at 1290 s.
The figure for `CC1(CNC(=O)c2ccccc2Br)CCOCC1` is 698 s; for `O=c1c2c(CO)c(-c3ccccc3)nn2ccn1Cc1ccccc1` it is 896 s; for `Cc1cc(C)cc(NC(=O)N2CCN(c3cnn4c(C)nnc4c3)CC2)c1` it is 634 s.
`Cc1ccc(C)c(NC(=O)N2CCC(n3cnnc3C3CC3)C2)c1` (stereo not given) returned an RP-LC retention time of 634 s.
The figure for `CCN1CCCC1CN(CCC(=O)N1CCNCC1)C(=O)c1ccc(C(F)(F)F)cc1` (stereo not given) is 569 s; for `CC(C)c1ccc(C(=O)N2CCCC2COc2ccc(C(=O)NC3CC3)cc2)cc1` (stereo not given) it is 910 s.
`Clc1ccc(OCc2nc(-c3cccnc3)n[nH]2)cc1` returned an RP-LC retention time of 634 s.
For `O=C(NCC1CCCCC1)c1cccc(CN2C(=O)C3CCCN3C(=O)c3ccccc32)c1` (stereo not given), the RP-LC retention time turned out to be 846 s.
As for `COc1ccc2c(c1)C(C(=O)N(Cc1ccc(N(C)C)cc1)c1ccc(C(C)C)cc1)CCC2` (stereo not given), the figure is 1260 s; as for `COc1ccc(-n2ncc3c(=O)n(Cc4nc(-c5ccccc5OC)no4)cnc32)cc1`, 902 s; as for `CC(=O)N1CCCc2ccc(NC(=O)COc3ccc(F)cc3)cc21`, 798 s.
`CNC(=O)c1noc([C@@H]2CC(F)(F)CN2C(=O)CCC2CCCC2)n1` returned an RP-LC retention time of 848 s.
In turn, `COc1ccc2nccc(/C=C/c3ccnc4ccc(OC)cc34)c2c1` registered an RP-LC retention time of 671 s.
`Cc1nn(C)c(=O)c2cc(S(=O)(=O)NCc3ccco3)cn12` came in with an RP-LC retention time of 718 s.
`CN(C(=O)Cn1nc(Cc2cccnc2)c2ccccc2c1=O)c1ccc(Br)cc1` registered an RP-LC retention time of 679 s.
As for `O=C(Nc1ccc2nncn2c1)c1cccc(Cl)c1`, the RP-LC retention time came to 719 s.
In the case of `Cc1cn(C)c(CC(=O)N2CCc3ccccc32)c1C(=O)O`, the RP-LC retention time amounted to 742 s.
As for `O=[N+]([O-])c1cccc(S(=O)(=O)Nc2ccc(O)c(-c3c(O)ccc4ccccc34)c2)c1`, the RP-LC retention time was 801 s.
As for `Cc1noc([C@@H]2CN(C(=O)c3cscn3)C[C@H]2C(N)=O)n1`, the RP-LC retention time came out at 556 s.
Compound `Cc1cccc(C)c1NS(=O)(=O)c1ccc(-c2c(C)noc2C)cc1` came in with an RP-LC retention time of 964 s.
`COc1ccc(-c2nnc(-c3ccc(-n4ccnc4)nc3)o2)cc1F` gave an RP-LC retention time of 642 s.
`COc1cc(NC(=O)N2CCC(CN3CC(C)CC(C)C3)CC2)cc(OC)c1OC` (stereo not given) displayed an RP-LC retention time of 625 s.
The compound `Cc1ccc(NS(=O)(=O)c2cc(-c3nc(C)cs3)sc2C)c(C)c1` yielded an RP-LC retention time of 1090 s.
As for `COc1ccc(OC)c(NS(=O)(=O)c2c(C)sc(C)c2-c2cc(C(F)(F)F)on2)c1`, the figure is 1150 s; as for `CC1(C)COc2ccc(NC(=O)COc3ccccc3F)cc2NC1=O`, 825 s; as for `COCc1cc2nn(CC(=O)Nc3ccc(OC)c(F)c3)c(=O)n2c(-c2ccccc2)n1`, 797 s.
The figure for `CCOc1ccc(-n2nnc(-c3nc(-c4ccccc4OC)cs3)c2N)cc1` is 1170 s; for `O=C(CN1C(=O)c2ccccc2C1=O)Nc1ccc2c(c1)N(C(=O)c1ccco1)CCC2` it is 738 s.
`Cc1cc(NC(=O)N2CCC(n3cnnc3C3CC3)C2)ccc1Br` (stereo not given) returned an RP-LC retention time of 692 s.
